The text below walks through data of patent US20250066423A1, “SESTRIN-MAPK COMPLEX INHIBITORS” (Sentcell Ltd, priority 2021, published 2025).

SMILES strings stand for the structures. Peptide text beside a SMILES is read from it.

Series [1] relates to T cells (senescent CD3+ CD4+ CD27− CD28− population). To be noted: DOS-FITC 10 μM, 4 hrs.
Procedure: (A-B) CD4+ T cells were isolated from peripheral blood mononuclear cells (PBMCs) from healthy donors and treated with DOS compounds. (A) Representative confocal images of CD4+ T cells stained with DOS-FITC and CD3-AF594. (B) Quantification of DOS46L penetration by flow cytometry in CD4+ CD27-CD28-cells (Tsen) and in CD4+CD27+CD28+ (Terl).
Purified T cells were plated at the concentration 1*10^6 cell/well in 24 well plate • 2. Cells were treated with 10 μM of DOS-FITC for 4 hrs • 3. Then collected and centrifuged at 500 g for 5 mins • 4. Washed two times with ice-cold PBS • 5. Cells were resuspended in 200 ul of PBS and plated in a pre-treated coverslip with poly-lysine • 6. Cells were fixed with 4% of formaldehyde in ice for 20 mins • 7. Washed three times with PBS • 8. Blocked with PBS-BSA 5% • 9. Cells were then incubated with primary antibody (anti-CD3 1:100) overnight at 4 C • 10. Washed three times with PBS • 11. Then incubated with secondary antibody (anti-mouse conjugated with AF-594; 1:250) for 1 hr at room temperature • 12. Washed three times with PBS 13. Cells were permeabilized with Triton 0.25% in PBS for 2 mins • 14. Followed incubation with antibody anti-KDEL (Abcam) and anti-sestrin 2 (Gentex) diluted 1:100 at 4 C over-night • 15. Washed for three times with PBS • 16. […]
Series [2] relates to Breast cancer cell line (MCF-7). In words: Cancer cell death by FACS live-dead staining. Format: cell-based. The conditions noted are these: 20 uM, 48 hours. The procedure: (§1) (Left) Immortalized paediatric neuroblastoma cell line (sh-sy5y) was treated at different concentrations of DOS46L and DOS144D (from 1 uM to 20 uM) for 48 hours, then analysed by FACS with live-dead staining. (Right) Breast cancer cell line (MCF-7) was treated at the fixed concentration of DOS46L and DOS144D (20 uM) for 48 hours, then analysed by FACS with live-dead dye staining. UN depicts untreated controls. Results of triplicate cultures are shown.
(In general: In flow cytometry, cells or beads pass a laser one at a time.)

In series [3] the test system is paediatric neuroblastoma cell line (sh-sy5y). In words: Cancer cell death by FACS live-dead staining. The series is classed as cell-based. The conditions noted are these: 1 uM to 20 uM, 48 hours. The method, then: as §1

With `CC[C@H](C)[C@@H]1NC(=O)[C@H](Cc2ccccc2)NC(=O)[C@H](C)NC(=O)[C@H](C(C)C)NC(=O)[C@@H]2CCCN2C1=O` [DOS46L] (cyclo(AFIPV)), the cell penetration result in series [1] is on record as “able to penetrate T cells”. Also, the cancer cell death result in series [2] and in series [3] was “induction of cancer cell death” in each case.
